Converted amounts (≈) assume the structure as drawn. Read-outs that look alike come from different tables or passages of the source.
Experiments:
[1] = lipophilicity by isocratic RP-HPLC (log k, k, log kw, S); format: physicochemical; conditions: for log kw: extrapolated to 100% water from log k versus ϕM; for S (slope): slope of log k versus ϕM regression
From the text: Octadecyl-functionalized silica gel was currently used as a stationary phase (SPh) and a […] of two solvents at different volume ratios modified retention properties of the SPh. Liquid binary mixtures of methanol (MeOH) with water were employed as mobile phases (MPhs) in the isocratic RP-HPLC. The MeOH modifier was preferred because of similarity of both observed and extrapolated lipophilicity parameters with the ones determined in the octan-1-ol/water partition system, considering also sensitivity to H-bond donor properties of investigated compounds [41].
The modifier was applied in different volume concentrations, which varied from […] (v/v) with 5% increments. This interval was chosen due to very high lipophilicity of investigated salts. Practically, lower volume concentration of MeOH, i.e., less than 85% (v/v) in used MPhs, caused uncertainty of retention times (tr) due to notable peaks broadening, especially within subsets 1i–l and 1m–p. […] The highest tr parameters were found for the molecules 1k (tr = 47.108 min) and 1l (tr = 70.012 min) in the MPh containing 85% proportion (v/v) of MeOH (Table 2).
According to the authors’ opinions based on systematic scientific literature survey, a current research paper was the first, which aimed the log kw parameters of 2-/3-alkoxyphenylcarbamic acid derivatives containing two centers of protonation. The log kw values were extrapolated from intercepts of a relationship between log k and volume fraction of the MPh modifier (ϕM) using the Snyder–Soczewiński linear solvent strength model. The relationship was justified by R > 0.9900, Adj. R^2 > 0.9750 as well as F > 180.00 for calculation of particular log kw parameters (Table 3).
The HPLC separation module Waters e2695 equipped with a Waters 2996 PDA Detector (Waters Corp., Milford, MA, USA) and chromatographic column Symmetry C18 × 5 μm, 4.6 × 250 mm, Part No. W21751W016 (Waters Corp.) were used for estimation of lipophilic properties of the compounds 1a–p at 21 °C.
Isocratic elution was carried out using mobile phases consisting of methanol p.a. (MeOH; Honeywell, Paris, France) and purified water in various volume ratios (80:20, 85:15, 90:10, 95:5 (v/v) and pure MeOH, respectively). Distilled water (CentralChem, Bratislava, Slovak Republic) was purified by the Aquinity2 P10 ultra-pure water system for production of ultra-pure water with an integrated 10 L permeate tank (membraPure, Hennigsdorf, Germany).
Total flow of the column was 1.0 mL/min, injection volume was 4 μL and column temperature was set to 40 °C. The detection wavelengths varying from 236 nm to 238 nm were chosen for current experimental procedures.
Lipophilicity of the compounds 1a–p was determined by reversed-phase high-performance liquid chromatography (RP-HPLC). Methanol (MeOH)/water mobile phases with varying volume ratio of the organic modifier and water (80:20, 85:15, 90:10, 95:5 (v/v) and pure MeOH, respectively) were chosen.
A methanolic solution of potassium iodine was used for dead time (td) determination. Retention factors (capacity factors; k) were calculated according to Equation (17):k = (tr− td)/td(17) where tr was retention time of a solute (in min), the td parameter denoted dead time of potassium iodine, an unretained analyte (in min).
The observed retention (tr) and dead (td) times were means of three independent determinations. Average td values of potassium iodine in used MPhs were as follows: 2.237 min (MeOH/water ratio (v/v) was 80:20), 2.245 min (85:15), 2.245 min (90:10), 2.228 min (95:5) and 2.210 min (pure MeOH), respectively. […]

[2] = tested on: M. kansasii CNCTC My 235/80 (identical with ATCC 12478; MK 235/80); test: in vitro antimycobacterial MIC, dilution micromethod in Šula's semisynthetic medium; format: cell-based, Mycobacterium kansasii; conditions: Mycobacterium kansasii
[3] = mobile phase MeOH/water 80:20 (v/v)
[4] = mobile phase MeOH/water 85:15 (v/v)
[5] = mobile phase MeOH/water 90:10 (v/v)
[6] = mobile phase MeOH/water 95:5 (v/v)
[7] = ATCC12478, 168 h, read-out: MIC MK 235/80 7-d
[8] = ATCC12478, 336 h, read-out: MIC MK 235/80 14-d
[9] = ATCC12478, 504 h, read-out: MIC MK 235/80 21-d
[10] = ATCC12478, 168 h, 7-day cultivation, read-out: MIC MK 235/80 7-d
[11] = ATCC12478, 336 h, 14-day cultivation, read-out: MIC MK 235/80 14-d
[12] = ATCC12478, 504 h, 21-day cultivation, read-out: MIC MK 235/80 21-d

CCCCCCCOc1ccccc1NC(=O)OC(CN(CCC)CCC)CN1CCCC1.Cl.Cl (stereo not drawn) [1d, 1-[2-[({[2-(heptyl-oxy)phenyl]amino}carbonyl)oxy]-3-(dipropylammonio)propyl]pyrrolidinium dichloride]
log kw [1]: 4.9487
k (retention factor) [1, 3]: 12.8588
log k [1, 3]: 1.1092
k (retention factor) [1, 4]: 7.7304
log k [1, 4]: 0.8882
k (retention factor) [1, 5]: 5.0373
log k [1, 5]: 0.7022
k (retention factor) [1, 6]: 2.5421
log k [1, 6]: 0.4052
k (retention factor) ([1]; mobile phase pure MeOH): 1.4365
log k ([1]; mobile phase pure MeOH): 0.1573
S (slope) [1]: 4.7736
MIC [2, 7]: 16 µM
MIC [2, 8]: 16 µM
MIC [2, 9]: 32 µM

CCCCCOc1cccc(NC(=O)OC(CN(CCC)CCC)CN2CCCC2)c1.Cl.Cl (stereo not drawn) [1f, 1-[2-[({[3-(pentyloxy)phenyl]amino}carbonyl)oxy]-3-(dipropylammonio)propyl]-pyrrolidinium dichloride]
log kw [1]: 4.6722
k (retention factor) [1, 3]: 4.5436
log k [1, 3]: 0.6574
k (retention factor) [1, 4]: 3.0981
log k [1, 4]: 0.4911
k (retention factor) [1, 5]: 1.7972
log k [1, 5]: 0.2546
k (retention factor) [1, 6]: 0.8052
log k [1, 6]: −0.0941
k (retention factor) ([1]; mobile phase pure MeOH): 0.5113
log k ([1]; mobile phase pure MeOH): −0.2913
S (slope) [1]: 4.9652
MIC [2, 7]: 16 µM
MIC [2, 8]: 16 µM
MIC [2, 9]: 32 µM

CCCCCCOc1ccccc1NC(=O)OC(CN(CCC)CCC)CN1CCCCCC1 (stereo not drawn) [1k]
log kw [1]: 5.2359
k (retention factor) [1, 3]: 20.0586
log k [1, 3]: 1.3023
k (retention factor) [1, 4]: 11.0255
log k [1, 4]: 1.0424
k (retention factor) [1, 5]: 6.3650
log k [1, 5]: 0.8038
k (retention factor) [1, 6]: 3.3274
log k [1, 6]: 0.5221
k (retention factor) ([1]; mobile phase pure MeOH): 2.1394
log k ([1]; mobile phase pure MeOH): 0.3303
S (slope) [1]: 4.9286
MIC [2, 10]: 16 µM (≈ 7.61 µg/mL)
MIC [2, 11]: 32 µM (≈ 15.2 µg/mL)
MIC [2, 12]: 62.5 µM (≈ 29.7 µg/mL)

CCCCCOc1ccccc1NC(=O)OC(CN(CCC)CCC)CN1CCCCCC1.O=C(O)C(=O)O (stereo not drawn) [1j, 1-[2-[({[2-(Pentyloxy)phenyl]amino}carbonyl)oxy]-3-(dipropylammonio)propyl]-azepanium oxalate]
log kw [1]: 4.8466
k (retention factor) [1, 3]: 12.1983
log k [1, 3]: 1.0863
k (retention factor) [1, 4]: 7.9086
log k [1, 4]: 0.8981
k (retention factor) [1, 5]: 4.8173
log k [1, 5]: 0.6828
k (retention factor) [1, 6]: 2.8242
log k [1, 6]: 0.4509
k (retention factor) ([1]; mobile phase pure MeOH): 1.3960
log k ([1]; mobile phase pure MeOH): 0.1449
S (slope) [1]: 4.6600
MIC [2, 7]: 16 µM
MIC [2, 8]: 32 µM
MIC [2, 9]: 62.5 µM

CCCCOc1cccc(NC(=O)OC(CN(CCC)CCC)CN2CCCCCC2)c1 (stereo not drawn) [1m]
log kw [1]: 4.7099
k (retention factor) [1, 3]: 6.0325
log k [1, 3]: 0.7805
k (retention factor) [1, 4]: 3.1060
log k [1, 4]: 0.4922
k (retention factor) [1, 5]: 1.8599
log k [1, 5]: 0.2695
k (retention factor) [1, 6]: 1.1026
log k [1, 6]: 0.0424
k (retention factor) ([1]; mobile phase pure MeOH): 0.5922
log k ([1]; mobile phase pure MeOH): −0.2275
S (slope) [1]: 4.9316
MIC [2, 10]: 16 µM (≈ 7.16 µg/mL)
MIC [2, 11]: 16 µM (≈ 7.16 µg/mL)
MIC [2, 12]: 32 µM (≈ 14.3 µg/mL)

— publication PMC6222509, “Dibasic Derivatives of Phenylcarbamic Acid against Mycobacterial Strains: Old Drugs and New Tricks?” (Molecules : A Journal of Synthetic Chemistry and Natural …, 2018)
